Laboratory results published in US20260125375A1 (Pfizer Inc., priority 2022, published 2026).
Read-outs that look alike come from different tables or passages of the source.

Experiments:
C-CBL = molecular target: T1, C-CBL (Homo sapiens, UniProt P22681); test: Jurkat HiBit-IL2 assay (CBL-B KO), reporter cell line expressing C-CBL only; assay type: cell-based; details: geometric mean, read-out: CBL-B KO EC50 (nM) GMean
T1 construct: endogenous in cells; host or cells: Jurkat HiBit-IL2 reporter cells, CBL-B knocked out by CRISPR
Outline: (§1)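 CRISPR knockout Jurkat HiBit-IL2 reporter cells (20,000/well) were preincubated 1 h with compounds (0.1% DMSO), then stimulated 4 h at 37 °C with anti-CD3 (1 μg/ml) and anti-CD28 (2 μg/ml) final. IL-2 was read by HiBiT lytic luminescence, normalized as fold over antibody-only baseline; EC50 reported as geometric mean.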

CBL-B (residues 36-427) = molecular target: T2, CBL-B (residues 36-427) (Homo sapiens, UniProt Q13191); test: Ligand Displacement Assay (LDA), HTRF competitive binding against BODIPY-labeled fluorescent tracer, CBL-B; details: geometric mean of the number of tests, read-out: CBL-B Ki (nM) GMean
T2 construct: Purified CBL-B (residues 36-427) and C-CBL (residues 46-435) proteins from baculovirus-infected insect cells; made in house; host or cells: baculovirus-infected insect cells
Outline: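 Competition with a BODIPY fluorescent tracer was read by HTRF, each protein carrying an N-terminal biotinylated AviTag bound to Tb-streptavidin. Tracer KD values were set beforehand per protein; Ki derives from duplicate three-fold compound series ([…], 2% DMSO), averaged geometrically across tests.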

CBL-B = molecular target: T3, CBL-B (Homo sapiens, UniProt Q13191); test: Jurkat HiBit-IL2 assay (c-CBL KO), reporter cell line expressing CBL-B only; assay type: cell-based; details: geometric mean, read-out: C-CBL KO EC50 (nM) GMean
T3 construct: endogenous in cells; host or cells: Jurkat HiBit-IL2 reporter cells, C-CBL knocked out by CRISPR
Outline: as §1

[1] = CBL-B KO (C-CBL only), anti-CD3/anti-CD28 stimulation 4 hours, Table 16a
[2] = c-CBL KO (CBL-B only), anti-CD3/anti-CD28 stimulation 4 hours, Table 16a
[3] = CBL-B KO (expressing C-CBL only), Table 16b (further repetition)
[4] = C-CBL KO (expressing CBL-B only), Table 16b (further repetition)

Row | SMILES | EC50 (C-CBL; [1]) [nM] | Ki (CBL-B (residues 36-427)) [nM] | EC50 (CBL-B; [2]) [nM] | EC50 (C-CBL; [3]) [nM] | EC50 (CBL-B; [4]) [nM]
1 | C[C@H]1CCCN(Cc2nc(C(F)(F)F)cc3c(-c4cccc(C5(Cc6nncn6C)COC5)c4)n[nH]c23)C1 [Example C30, 7-{[(3S)-3-methylpiperidin-1-yl]methyl}-3-(3-{3-[(4-methyl-4H-1,2,4-triazol-3-yl)methyl]oxetan-3-yl}phenyl)-5-(trifluoromethyl)-1H-pyrazolo[3,4-c]pyridine] | 232 | 3.6 | 32 | – | –
2 | CC(c1nc(C(F)(F)F)cc2c(-c3cccc(C4(Cc5nncn5C)COC4)c3)n[nH]c12)N1CCCCC1 (single isomer, unassigned) [Example C21, 3-(3-{3-[(4-methyl-4H-1,2,4-triazol-3-yl)methyl]oxetan-3-yl}phenyl)-7-[(1ξ)-1-(piperidin-1-yl)ethyl]-5-(trifluoromethyl)-1H-pyrazolo[3,4-c]pyridine] | 851 | 21.3 | 152 | – | –
3 | C[C@@H]1CCCN([C@H](C)c2nc(C(F)(F)F)cc3c(-c4cccc(C5(Cc6nncn6C)COC5)c4)n[nH]c23)C1 (single isomer, unassigned) [Example D14] | 2010 | 42.9 | 354 | – | –
4 | C[C@H](N[C@H]1CCC[C@@H]1O)c1nc(C(F)(F)F)cc2c(-c3cccc([C@H](c4nncn4C)C4CCC4)c3)n[nH]c12 (single isomer, unassigned) [Example C47] | 105 | 0.7 | 5 | 76 | 11
5 | C[C@H]1CCCN(Cc2nc(C(F)(F)F)cc3c(-c4cccc([C@H](c5nncn5C)C5CCC5)c4)n[nH]c23)C1 [Example C7, 3-{3-[(R)-cyclobutyl(4-methyl-4H-1,2,4-triazol-3-yl)methyl]phenyl}-7-{[(3S)-3-methylpiperidin-1-yl]methyl}-5-(trifluoromethyl)-1H-pyrazolo[3,4-c]pyridine] | 519 | 3.7 | 58 | – | –
6 | Cn1cnnc1CC1(c2cccc(-c3n[nH]c4ncc(C(F)(F)F)cc34)c2)COC1 [Example B3, 3-(3-{3-[(4-methyl-4H-1,2,4-triazol-3-yl)methyl]oxetan-3-yl}phenyl)-5-(trifluoromethyl)-1H-pyrazolo[3,4-b]pyridine] | 4060 | 75.3 | 1710 | – | –
7 | C[C@H](c1nc(C(F)(F)F)cc2c(-c3cccc(C4(Cc5nncn5C)COC4)c3)n[nH]c12)N1C[C@@H](F)[C@H](F)C1 (single isomer, unassigned) [Example C26] | 1850 | 40.5 | 172 | – | –
8 | CC1CN(Cc2nc(C(F)(F)F)cc3c(-c4cccc(C5(Cc6nncn6C)COC5)c4)n[nH]c23)CCC1(F)F (single isomer, unassigned) [Example C31, 7-{[(3ξ)-4,4-difluoro-3-methylpiperidin-1-yl]methyl}-3-(3-{3-[(4-methyl-4H-1,2,4-triazol-3-yl)methyl]oxetan-3-yl}phenyl)-5-(trifluoromethyl)-1H-pyrazolo[3,4-c]pyridine] | 1370 | 21.7 | 166 | – | –
9 | CC(NC1CNC1)c1nc(C(F)(F)F)cc2c(-c3cccc(C4(Cc5nncn5C)COC4)c3)n[nH]c12 (single isomer, unassigned) [Example C27, N-{(1ξ)-1-[3-(3-{3-[(4-methyl-4H-1,2,4-triazol-3-yl)methyl]oxetan-3-yl}phenyl)-5-(trifluoromethyl)-1H-pyrazolo[3,4-c]pyridin-7-yl]ethyl}azetidin-3-amine] | > 4300 | 31.4 | > 1290 | – | –
10 | C[C@H](c1nc(C(F)(F)F)cc2c(-c3cccc(C4(Cc5nncn5C)COC4)c3)n[nH]c12)N1C[C@H](F)[C@@H](F)C1 (single isomer, unassigned) [Example D8] | 1210 | 25.4 | 603 | – | –
11 | C[C@@H](N[C@@H]1CCC[C@@H]1O)c1nc(C(F)(F)F)cc2c(-c3cccc([C@H](c4nncn4C)C4CCC4)c3)n[nH]c12 (single isomer, unassigned) [Example D16] | 188 | 2.5 | 18 | – | –
12 | C[C@H](NC1CC[C@H]1O)c1nc(C(F)(F)F)cc2c(-c3cccc([C@H](c4nncn4C)C4CCC4)c3)n[nH]c12 (single isomer, unassigned) [Example D30] | 43 | 0.6 | 3 | 52 | 10
13 | C[C@H](NC1CCCC1)c1nc(C(F)(F)F)cc2c(-c3cccc([C@H](c4nncn4C)C4CCC4)c3)n[nH]c12 (single isomer, unassigned) [Example C10] | > 2310 | 11.4 | 233 | – | –
14 | Cn1cnnc1CC1(c2cccc(-c3n[nH]c4c(CN5CCCCC5)nc(C(F)(F)F)cc34)c2)COC1 [Example C33, 3-(3-{3-[(4-methyl-4H-1,2,4-triazol-3-yl)methyl]oxetan-3-yl}phenyl)-7-[(piperidin-1-yl)methyl]-5-(trifluoromethyl)-1H-pyrazolo[3,4-c]pyridine] | 1840 | 22.6 | 116 | – | –
15 | Cn1cnnc1CC1(c2cccc(-c3n[nH]c4c(CN[C@H]5CCC(F)(F)C5)nc(C(F)(F)F)cc34)c2)COC1 [Example C38, (1S)-3,3-difluoro-N-{[3-(3-{3-[(4-methyl-4H-1,2,4-triazol-3-yl)methyl]oxetan-3-yl}phenyl)-5-(trifluoromethyl)-1H-pyrazolo[3,4-c]pyridin-7-yl]methyl}cyclopentan-1-amine] | 494 | 6.9 | 71 | – | –
16 | C[C@H](N)c1nc(C(F)(F)F)cc2c(-c3cccc([C@H](c4nncn4C)C4CCC4)c3)n[nH]c12 [Example K12, (1S)-1-[3-{3-[(R)-cyclobutyl(4-methyl-4H-1,2,4-triazol-3-yl)methyl]phenyl}-5-(trifluoromethyl)-1H-pyrazolo[3,4-c]pyridin-7-yl]ethan-1-amine] | – | 19.3 | – | 2080 | 895
17 | Cn1cnnc1[C@@H](c1cccc(-c2n[nH]c3c(CN[C@@H]4CCC[C@@H]4O)nc(C(F)(F)F)cc23)c1)C1CCC1 [Example C1, (1S,2R)-2-({[3-{3-[(R)-cyclobutyl(4-methyl-4H-1,2,4-triazol-3-yl)methyl]phenyl}-5-(trifluoromethyl)-1H-pyrazolo[3,4-c]pyridin-7-yl]methyl}amino)cyclopentan-1-ol] | 275 | 0.6 | 25 | 584 | 116
18 | C[C@H](N[C@@H]1CCC[C@@H]1O)c1nc(C(F)(F)F)cc2c(-c3cccc([C@H](c4nncn4C)C4CCC4)c3)n[nH]c12 (single isomer, unassigned) [Example D15] | 20 | 0.9 | 3 | 11 | 4
19 | C[C@H](N[C@@H]1CCC(F)(F)C1)c1nc(C(F)(F)F)cc2c(-c3cccc(C4(Cc5nncn5C)COC4)c3)n[nH]c12 (single isomer, unassigned) [Example C17] | 196 | 4 | 33 | – | –
20 | CC(c1nc(C(F)(F)F)cc2c(-c3cccc(C4(Cc5nncn5C)COC4)c3)n[nH]c12)N1CCCCC1 (single isomer, unassigned) [Example C22, 3-(3-{3-[(4-methyl-4H-1,2,4-triazol-3-yl)methyl]oxetan-3-yl}phenyl)-7-[(1ξ)-1-(piperidin-1-yl)ethyl]-5-(trifluoromethyl)-1H-pyrazolo[3,4-c]pyridine] | 942 | 24.1 | 120 | – | –
21 | C[C@@H](N[C@H]1CCC(F)(F)C1)c1nc(C(F)(F)F)cc2c(-c3cccc(C4(Cc5nncn5C)COC4)c3)n[nH]c12 (single isomer, unassigned) [Example C13] | 63 | 2.3 | 16 | – | –
22 | C[C@H](c1nc(C(F)(F)F)cc2c(-c3cccc(C4(Cc5nncn5C)COC4)c3)n[nH]c12)N1CCC(F)(F)C1 (single isomer, unassigned) [Example D6] | 235 | 4.6 | 64 | – | –
23 | Cn1cnnc1CC1(c2cccc(-c3n[nH]c4cnc(C(F)(F)F)cc34)c2)COC1 [Example B1, 3-(3-(3-((4-methyl-4H-1,2,4-triazol-3-yl)methyl)oxetan-3-yl)phenyl)-5-(trifluoromethyl)-1H-pyrazolo[3,4-c]pyridine] | > 9980 | 62.7 | > 8710 | – | –
24 | Cn1cnnc1[C@@H](c1cccc(-c2n[nH]c3c(CN[C@H]4CCOC4)nc(C(F)(F)F)cc23)c1)C1CCC1 [Example D1, (3S)—N-{[3-{3-[(R)-cyclobutyl(4-methyl-4H-1,2,4-triazol-3-yl)methyl]phenyl}-5-(trifluoromethyl)-1H-pyrazolo[3,4-c]pyridin-7-yl]methyl}oxolan-3-amine] | 1890 | 22.4 | 276 | – | –
